Experimental data reported in ChEMBL document CHEMBL5154736, “Stereochemically altered cephalosporins as potent inhibitors of New Delhi metallo-β-lactamases” (Eur J Med Chem, 2022).
≈ marks a conversion by molar mass, not a printed value. Calls of active or inactive are those of the source. The rule behind the calls is not given here.

Key:
[1] = Inhibition of bacterial NDM-1 using CDC-1 as substrate incubated for 30 mins; parameters: species or system Bacteria
[2] = Inhibition of bacterial IMP-1 using CDC-1 as substrate incubated for 30 mins; parameters: species or system Bacteria
[3] = Inhibition of bacterial VIM-27 using CDC-1 as substrate incubated for 30 mins; parameters: species or system Bacteria
[4] = Inhibition of bacterial NDM-3 using CDC-1 as substrate incubated for 30 mins; parameters: species or system Bacteria
[5] = Inhibition of bacterial NDM-4 using CDC-1 as substrate incubated for 30 mins; parameters: species or system Bacteria
[6] = Inhibition of bacterial NDM-12 using CDC-1 as substrate incubated for 30 mins; parameters: species or system Bacteria
[7] = Inhibition of bacterial NDM-13 using CDC-1 as substrate incubated for 30 mins; parameters: species or system Bacteria
[8] = Competitive inhibition of bacterial NDM-1 using CDC-1 as substrate and measured by Dixon plot analysis; parameters: species or system Bacteria
[9] = tested on: HEK293; assay: Cytotoxicity against human HEK293 cells at 1 to 100 uM and measured by MTT assay; assay type: toxicity, cell-based; settings: hek293, 100 µM, dose 1-100 µM
[10] = tested on: HEK293; assay: Cytotoxicity against human HEK293 cells at 50 uM and measured by Calcien AM staining method; assay type: toxicity, cell-based; settings: hek293, 50 µM
[11] = tested on: HEK293; assay: Cytotoxicity against human HEK293 cells at 50 uM and measured by propidium iodide (PI) staining method; assay type: toxicity, cell-based; settings: hek293, 50 µM
[12] = tested on: Escherichia coli; assay: Potentiation of meropenem-induced antibacterial activity against Escherichia coli expressing NDM-1 at 0.25 ug/ml assessed as meropenem MIC by broth microdilution method; assay type: functional; settings: dose 0.25 µg/ml
[13] = tested on: Escherichia coli; assay: Potentiation of meropenem-induced antibacterial activity against Escherichia coli expressing NDM-1 at 8 ug/ml assessed as meropenem MIC by broth microdilution method; assay type: functional; settings: dose 8 µg/ml
[14] = tested on: Bacteria; assay: Reversible inhibition of bacterial NDM-1 at 10 uM incubated for 30 mins
[15] = tested on: Escherichia coli; assay: Antibacterial activity against Escherichia coli expressing NDM-1 measured by broth microdilution method; assay type: functional

Row | Compound | IC50 [1] | IC50 [2] | IC50 [3] | also measured
1 | CO[C@H]1C(=O)N2C(C(=O)O)=C(C[Se]c3ccccc3)CS[C@H]12 | 0.19 µM | 6.6 µM | 6 µM | 
2 | O=C(O)C1=C(CSC(=O)c2ccccc2)CS[C@@H]2[C@@H](O)C(=O)N12 | 0.46 µM |  |  | 
3 | CO[C@H]1C(=O)N2C(C(=O)O)=C(CSC(=O)c3ccccc3)CS[C@H]12 | > 50 µM | 7.9 µM | 9.1 µM | 
4 | CO[C@H]1C(=O)N2C(C(=O)O)=C(C)CS[C@H]12 | > 50 µM |  |  | 
5 | CCO[C@H]1C(=O)N2C(C(=O)O)=C(CSC(=O)c3ccccc3)CS[C@H]12 | 7.4 µM | 4.6 µM | 3.6 µM | 
6 | O=C(Cc1ccccc1)N[C@H]1C(=O)N2C(C(=O)O)=C(CSC(=O)c3ccccc3)CS[C@H]12 | 0.22 µM |  |  | 
7 | CO[C@H]1C(=O)N2C(C(=O)O)=C(CSc3nnnn3C)CS[C@H]12 | 0.63 µM | 20 µM | 5.5 µM | 
8 | CO[C@H]1C(=O)N2C(C(=O)O)=C(CSc3ncccn3)CS[C@H]12 | 0.63 µM | 8.8 µM | 8.6 µM | 
9 | CO[C@H]1C(=O)N2C(C(=O)O)=C(CSC(=O)c3ccccc3)C[S+]([O-])[C@H]12 (stereo not given in full) | 0.25 µM |  |  | 
10 | CCS[C@H]1C(=O)N2C(C(=O)O)=C(CSC(=O)c3ccccc3)CS[C@H]12 | 0.31 µM | 0.8 µM | 5.2 µM | 
11 | CC(C)O[C@H]1C(=O)N2C(C(=O)O)=C(CSC(=O)c3ccccc3)CS[C@H]12 | 1.4 µM |  |  | 
12 | CO[C@H]1C(=O)N2C(C(=O)O)=C(CSc3nc4ccc([N+](=O)[O-])cc4s3)CS[C@H]12 | 0.76 µM | 15 µM | 1 µM | 
13 | O=C(O)C1=C(CSC(=O)c2ccccc2)CS[C@@H]2CC(=O)N12 | > 50 µM |  |  | 
14 | CO[C@H]1C(=O)N2C(C(=O)O)=C(COC(C)=O)CS[C@H]12 | 0.99 µM |  |  | 
15 | CO[C@H]1C(=O)N2C(C(=O)O)=C(CSC(=O)c3ccccc3)CS(=O)(=O)[C@H]12 | > 50 µM |  |  | 
16 | CO[C@H]1C(=O)N2C(C(=O)O)=C(CSc3nc4ccccc4s3)CS[C@H]12 | 0.13 µM | 8 µM | 6 µM | IC50 [4]: 0.19 µM; IC50 [5]: 0.21 µM; IC50 [6]: 0.2 µM; IC50 [7]: 0.16 µM; Ki [8]: 0.21 µM; Activity [9]: Non-Toxic; Activity [10]: Non-Toxic; Activity [11]: Non-Toxic; MIC [12]: 32 µg/mL; MIC [13]: 16 µg/mL; inhibition [14]: Active
17 | CO[C@H]1C(=O)N2C(C(=O)O)=C(CSc3ccccc3)CS[C@H]12 | 2 µM | 7.4 µM | 8.1 µM | 
18 | CO[C@H]1C(=O)N2C(C(=O)O)=C(CSc3ccc(NC(C)=O)cc3)CS[C@H]12 | 0.2 µM | 8.4 µM | 5.8 µM | 
19 | C[C@@H](O)[C@H]1C(=O)N2C(C(=O)O)=C(S[C@@H]3CN[C@H](C(=O)N(C)C)C3)[C@H](C)[C@H]12 [MEROPENEM] |  |  |  | MIC [15]: 0.031 µg/mL (≈ 0.0808 µM)
20 | CO[C@H]1C(=O)N2C(C(=O)O)=C(CSc3ccc(C(F)(F)F)cc3)CS[C@H]12 | 0.5 µM | 5.5 µM | 7.3 µM | 
21 | CCSCC1=C(C(=O)O)N2C(=O)[C@H](OC)[C@H]2SC1 | 1.2 µM |  |  | 
22 | CCOC(=O)CSCC1=C(C(=O)O)N2C(=O)[C@H](OC)[C@H]2SC1 | 0.62 µM |  |  | 
23 | CO[C@H]1C(=O)N2C(C(=O)O)=C(CSc3nncs3)CS[C@H]12 | 1.6 µM | 15 µM | 8.1 µM | 
24 | O=C(O)C1=C(CSc2nc3ccccc3s2)CS[C@@H]2CC(=O)N12 | > 50 µM |  |  | 
25 | CO[C@@]1(NC(=O)Cc2ccccc2)C(=O)N2C(C(=O)O)=C(CSC(=O)c3ccccc3)CS[C@@H]21 | 9.6 µM |  |  | 
26 | CO[C@H]1C(=O)N2C(C(=O)O)=C(CSc3nnc(C)s3)CS[C@H]12 | 0.55 µM | 16 µM | 13 µM | 
27 | O=C(Cc1ccccc1)N[C@@H]1C(=O)N2C(C(=O)O)=C(CSC(=O)c3ccccc3)CS[C@H]12 | 9.4 µM |  |  | 
28 | O=C(O)CN(CCN(CC(=O)O)CC(=O)O)CC(=O)O [EDETIC ACID] | 0.54 µM |  |  | 
